Converted amounts (≈) assume the structure as drawn.
Key:
Format in all cases: functional, cell-based
KB = experiment: Cytotoxicity against vincristine-sensitive human KB cells
[1] = Cytotoxicity against vincristine-resistant human KB/VJ300 cells
[2] = Cytotoxicity against vincristine-resistant human KB/VJ300 cells in presence of vincristine

Row | Structure (SMILES) | IC50 (KB) | IC50 [1] | IC50 [2]
1 | CC[C@@H]1CN(C)[C@H]2Cc3c([nH]c4ccccc34)C(=O)C[C@H]1[C@H]2C(=O)OC | 5.5 µg/mL (≈ 15.5 µM) | > 25 µg/mL | 9.4 µg/mL
2 | COC(=O)[C@@H]1[C@@H]2Cc3c([nH]c4ccccc34)C(=O)C[C@@H]1[C@@]1(CN2C)O[C@H]1C | 5.7 µg/mL (≈ 15.5 µM) | > 25 µg/mL | > 25 µg/mL
3 | CCC1=CN(C)[C@H]2Cc3c([nH]c4ccccc34)C(=O)C[C@H]1[C@@H]2C(=O)OC | 18.9 µg/mL (≈ 53.6 µM) | > 25 µg/mL | > 25 µg/mL
4 | COC(=O)[C@H]1[C@@H]2CC(=O)c3[nH]c4ccccc4c3C[C@@H]1N(C)C=C2C(C)=O | > 25 µg/mL | > 25 µg/mL | > 25 µg/mL
5 | C/C=C1\CN2CC[C@@]3(C(=O)Nc4ccccc43)[C@@H]2C[C@H]1C[C@@H]1NCCc2c1[nH]c1ccccc21 | 20 µg/mL (≈ 44.2 µM) | > 25 µg/mL | 8.4 µg/mL
6 | CC[C@H]1CN(C)[C@H]2Cc3c([nH]c4ccccc34)C(=O)C[C@H]1[C@@H]2C(=O)OC | > 25 µg/mL | > 25 µg/mL | > 25 µg/mL
7 | C/C=C1/CN(C)[C@H]2Cc3c([nH]c4ccccc34)C(=O)C[C@H]1[C@H]2C(=O)OC | 5.6 µg/mL (≈ 15.9 µM) | 22 µg/mL (≈ 62.4 µM) | 13.5 µg/mL
8 | COC(=O)[C@H]1[C@@H]2CC(=O)c3[nH]c4ccccc4c3C[C@@H]1N(C)C=C2C=O | > 25 µg/mL | > 25 µg/mL | > 25 µg/mL
9 | COC(=O)[C@@H]1[C@@H]2CC(=O)c3[nH]c4ccccc4c3C[C@@H]1N(C)C=C2C=O | 5.1 µg/mL (≈ 14.5 µM) | > 25 µg/mL | > 25 µg/mL
10 | CC[C@@H]1CN(C)[C@H]2Cc3c([nH]c4ccccc34)C(=O)C[C@@H]1[C@H]2C(=O)OC [TABERNAEMONTANINE] | > 25 µg/mL | > 25 µg/mL | > 25 µg/mL
11 | CC[C@]1(O)C[C@H]2CN(CCc3c([nH]c4ccccc34)[C@@](C(=O)OC)(c3cc4c(cc3OC)N(C=O)[C@H]3[C@@](O)(C(=O)OC)[C@H](OC(C)=O)[C@]5(CC)C=CCN6CC[C@]43[C@@H]65)C2)C1 [VINCRISTINE] | 0.007 µg/mL (≈ 0.00849 µM) | 5.4 µg/mL (≈ 6.55 µM) | 
12 | C/C=C1/CN(C)[C@H]2Cc3c([nH]c4ccccc34)C(=O)C[C@H]1[C@@H]2C(=O)OC [VOBASINE] | > 25 µg/mL | > 25 µg/mL | > 25 µg/mL

Reference: ChEMBL document CHEMBL3352798, “Cytotoxic vobasine, tacaman, and corynanthe-tryptamine bisindole alkaloids from Tabernaemontana and structure revision of tronoharine” (J Nat Prod, 2014)
